Patent publication US11767314B2, “Bioenergetic nicotinic acid glycerol esters, compositions and methods of using same” (Conopco, Inc., priority 2018, dated 2023)
Entries after “also recorded” stand apart in the source; their conditions may differ.

Tested on: Human dermal fibroblasts F5140616B1
Assay: Effect of NAEs on AMP/ATP Ratio in Fibroblast Cells (metabolites by LC/MS)
Type: cell-based
Design: AMP/ATP Ratio: scale not given here
Settings: for AMP/ATP Ratio / Increase Over Vehicle (AMP/ATP ratio): 500 uM, fibroblasts treated every other day for 6 days; for AMP/ATP Ratio: vehicle (ethanol) 367; for Increase Over Vehicle (AMP/ATP ratio): vs ethanol vehicle; for AMP/ATP ratio, result in words: fibroblast cells, 500 uM where stated
Method: The experiments in this Example 2 were conducted in the following manner.
Method for Treatment of Fibroblasts with Bioenergetic Compounds
Human dermal fibroblasts F5140616B1 (MatTek Corporation, Ashland, Mass.) were derived from a donor and cultured in DMEM media (ThermoFisher Cat #31053-036) supplemented with FBS (Hyclone/Fisher Scientific Cat #SH30007103), glutamine (ThermoFisher Cat #35050-61) and sodium pyruvate (ThermoFisher Cat #11360-070). At the third passage, the cells were detached from the culture vessels using Trypsin/EDTA (T/E) solution (0.25 mg/mL) (Lonza Cat #CC-5012) and used for experimentation.
Cells were treated with the compounds every other day for a total of 6 days. Treatment involved removal of the spent media+compounds and replenishment with fresh media+compounds. At the end of the experiment, the cells were detached from the culture vessels using the standard procedure outlined above. The cells were centrifuged and then washed 1× with Dulbecco's PBS with no calcium or magnesium (ThermoFisher Cat #14190144) and then accurate cell counts were taken using a Scepter cell counter (EMD Millipore). The cells were then split equally into 2 Eppendorf tubes, and centrifuged. Excess PBS was then removed from the resulting cell pellets. The pellets were then immediately frozen on dry ice and sent to an external laboratory for analysis of metabolites by LC/MS.

| Compound | AMP/ATP Ratio | Increase Over Vehicle (AMP/ATP ratio) [%] | AMP/ATP ratio, result in words |
| --- | --- | --- | --- |
| CC(=O)O[C@@H]1[C@@H](CO)OC(N2C=CCC(C(N)=O)=C2)[C@@H]1OC(C)=O (stereo partly drawn) [JR3, (3R,4R,5R)-2-(3-carbamoylpyridin-1(4H)-yl)-5-(hydroxymethyl) tetrahydrofuran-3,4-diyl diacetate] | 1231 | 235 |  |
| NC(=O)c1cccnc1 [Nicotinamide, reference compound] | 529 | 44 | somewhat elevated levels of AMP/ATP ratio over control vehicle |
| CC1(C)OCC(COC(=O)c2cccnc2)O1 (stereo not shown) [VC1, (2,2-dimethyl-1,3-dioxolan-4-yl)methyl nicotinate] | 1010 | 175 | increased AMP/ATP ratio in testing; also recorded: notably increase the AMP/ATP ratio; also recorded: significantly elevated levels of AMP/ATP ratio over both, control vehicle and nicotinamide; also recorded: increase in the levels of AMP/ATP ratio; also recorded: demonstrably increased AMP/ATP ratio |
| CCCC(=O)O[C@@H]1[C@@H](CO)OC([n+]2cccc(C(N)=O)c2)[C@@H]1OC(=O)CCC.O=S(=O)([O-])C(F)(F)F (stereo partly drawn) [JR2, 1-((3R,4R,5R)-3,4-bis(butyryloxy)-5-(hydroxymethyl)tetrahydrofuran-2-yl)-3-carbamoylpyridin-1-ium trifluoromethanesulfonate] | 919 | 150 |  |
| CC1(C)OCC(OC(=O)c2cccnc2)CO1 [VC4, 2,2-dimethyl-1,3-dioxan-5-yl nicotinate] | 941 | 156 | increased AMP/ATP ratio in testing; also recorded: notably increase the AMP/ATP ratio; also recorded: significantly elevated levels of AMP/ATP ratio over both, control vehicle and nicotinamide; also recorded: demonstrably increased AMP/ATP ratio |
| O=C(OCC(O)CO)c1cccnc1 (stereo not shown) [VC2, 2,3-dihydroxypropyl nicotinate] |  |  | increased AMP/ATP ratio in testing; also recorded: notably increase the AMP/ATP ratio; also recorded: increase in the levels of AMP/ATP ratio; also recorded: demonstrably increased AMP/ATP ratio |
| CC(=O)O[C@@H]1[C@@H](CO)OC([n+]2cccc(C(N)=O)c2)[C@@H]1OC(C)=O.O=S(=O)([O-])C(F)(F)F (stereo partly drawn) [JR1, 3-carbamoyl-1-((3R,4R,5R)-3,4-diacetoxy-5-(hydroxymethyl)tetrahydrofuran-2-yl)pyridin-1-ium trifluoromethanesulfonate] | 756 | 106 |  |
